{
  "source": "patent US8247211B2",
  "about": "“Glycopeptide antibiotics” (American Cyanamid Company, priority 2001, dated 2012)",
  "assay_in_all_cases": "In vitro antibacterial evaluation: minimum inhibitory concentration (MIC), broth dilution method",
  "type_in_all_cases": "cell-based",
  "key": {"Enterococcus sp.": {"tested_on": "Enterococcus sp.", "method_in_brief": "(§1)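 Using Muller-Hinton II […] and an inoculum of 5×10^5 CFU/mL, antibiotic dilutions from 64 down to 0.06 μg/mL were tested following NCCLS M7-A2. The MIC is the lowest concentration inhibiting growth, including in methicillin-, penicillin- or vancomycin-resistant clinical isolates.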"}, "Escherichia coli": {"tested_on": "Escherichia coli", "method_in_brief": "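Following NCCLS approved standard M7-A2, compounds are serially diluted from 64 to 0.06 μg/mL in Muller-Hinton II […] and inoculated at 5×10^5 CFU/mL; the MIC is the minimum concentration at which growth is inhibited.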"}, "Staphylococcus sp.": {"tested_on": "Staphylococcus sp.", "details": "broth dilution, 18 hours at 35° C.", "method_in_brief": "as §1"}, "Streptococcus sp.": {"tested_on": "Streptococcus sp.", "method_in_brief": "as §1"}, "[1]": {"details": "broth dilution, inoculum 5×10^5 CFU/mL, 18 hours at 35° C."}},
  "data": [
    {"smiles": "CC(c1ccccc1)C1NC(=O)CNC(=O)C(CO)NC(=O)C(C(O)C2CNC(=N)N2C2OC(CO)C(O)C(O)C2O)NC(=O)C(C(O)C2CNC(=N)N2)NC(=O)C(Cc2ccc(OC3OC(CO)C(OC4OC5COC(c6ccc(-c7ccc(Cl)cc7)cc6)OC5C(O)C4O)C(O)C3O)cc2)NC1=O", "note": "(stereo not drawn) [Example 178]", "values": [
      {"measurement": "MIC Enterococcus avium (GC 4558)", "setting": "Enterococcus sp.; [1]", "value": 4, "unit": "µg/mL"},
      {"measurement": "MIC Enterococcus faecalis (ATCC 29212)", "setting": "Enterococcus sp.; [1]", "value": 4, "unit": "µg/mL"},
      {"measurement": "MIC Enterococcus faecalis (GC 2242)", "setting": "Enterococcus sp.; [1]", "value": 2, "unit": "µg/mL"},
      {"measurement": "MIC Enterococcus faecalis (GC 2691)", "setting": "Enterococcus sp.; [1]", "value": 1, "unit": "µg/mL"},
      {"measurement": "MIC Enterococcus faecalis (GC 3059)", "setting": "Enterococcus sp.; [1]", "value": 16, "unit": "µg/mL"},
      {"measurement": "MIC Enterococcus faecalis (GC 4552)", "setting": "Enterococcus sp.; [1]", "value": 4, "unit": "µg/mL"},
      {"measurement": "MIC Enterococcus faecalis (GC 4553)", "setting": "Enterococcus sp.; [1]", "value": 2, "unit": "µg/mL"},
      {"measurement": "MIC Enterococcus faecalis (GC 4554)", "setting": "Enterococcus sp.; [1]", "value": 2, "unit": "µg/mL"},
      {"measurement": "MIC Enterococcus faecalis (GC 6189)", "setting": "Enterococcus sp.; [1]", "value": 0.5, "unit": "µg/mL"},
      {"measurement": "MIC Enterococcus faecium (GC 2243)", "setting": "Enterococcus sp.; [1]", "value": 4, "unit": "µg/mL"},
      {"measurement": "MIC Enterococcus faecium (GC 4556)", "setting": "Enterococcus sp.; [1]", "value": 4, "unit": "µg/mL"},
      {"measurement": "MIC Enterococcus faecium (GC 4557)", "setting": "Enterococcus sp.; [1]", "value": 8, "unit": "µg/mL"},
      {"measurement": "MIC Enterococcus faecalis (ATCC 29212)", "setting": "Enterococcus sp.; strain ATCC 29212", "value": 4, "unit": "µg/mL"},
      {"measurement": "MIC Enterococcus faecalis (GC 2242)", "setting": "Enterococcus sp.; strain GC 2242", "value": 2, "unit": "µg/mL"},
      {"measurement": "MIC Enterococcus faecium (GC 2243)", "setting": "Enterococcus sp.; strain GC 2243", "value": 4, "unit": "µg/mL"},
      {"measurement": "MIC Enterococcus faecalis (GC 2691)", "setting": "Enterococcus sp.; strain GC 2691", "value": 1, "unit": "µg/mL"},
      {"measurement": "MIC Enterococcus faecalis (GC 3059)", "setting": "Enterococcus sp.; strain GC 3059", "value": 16, "unit": "µg/mL"},
      {"measurement": "MIC Enterococcus faecalis (GC 4552)", "setting": "Enterococcus sp.; strain GC 4552", "value": 4, "unit": "µg/mL"},
      {"measurement": "MIC Enterococcus faecalis (GC 4553)", "setting": "Enterococcus sp.; strain GC 4553", "value": 2, "unit": "µg/mL"},
      {"measurement": "MIC Enterococcus faecalis (GC 4554)", "setting": "Enterococcus sp.; strain GC 4554", "value": 2, "unit": "µg/mL"},
      {"measurement": "MIC Enterococcus faecium (GC 4556)", "setting": "Enterococcus sp.; strain GC 4556", "value": 4, "unit": "µg/mL"},
      {"measurement": "MIC Enterococcus faecium (GC 4557)", "setting": "Enterococcus sp.; strain GC 4557", "value": 8, "unit": "µg/mL"},
      {"measurement": "MIC Enterococcus avium (GC 4558)", "setting": "Enterococcus sp.; strain GC 4558", "value": 4, "unit": "µg/mL"},
      {"measurement": "MIC Enterococcus faecalis (GC 6189)", "setting": "Enterococcus sp.; strain GC 6189", "value": 0.5, "unit": "µg/mL"},
      {"measurement": "MIC Escherichia coli (ATCC 25922)", "setting": "Escherichia coli; strain ATCC 25922", "value": ">64", "unit": "µg/mL"},
      {"measurement": "MIC Escherichia coli (GC 4559)", "setting": "Escherichia coli; strain GC 4559", "value": ">64", "unit": "µg/mL"},
      {"measurement": "MIC Escherichi coli (GC 4560)", "setting": "Escherichia coli; strain GC 4560", "value": 16, "unit": "µg/mL"},
      {"measurement": "MIC Coagulase Negative Staphylococcus (GC 4547)", "setting": "Staphylococcus sp.; 5×10^5 CFU/mL", "value": 32, "unit": "µg/mL"},
      {"measurement": "MIC Coagulase Negative Staphylococcus (GC 4548)", "setting": "Staphylococcus sp.; 5×10^5 CFU/mL", "value": 0.5, "unit": "µg/mL"},
      {"measurement": "MIC Coagulase Negative Staphylococcus (GC 4549)", "setting": "Staphylococcus sp.; 5×10^5 CFU/mL", "value": 2, "unit": "µg/mL"},
      {"measurement": "MIC Coagulase Negative Staphylococcus (GC 4551)", "setting": "Staphylococcus sp.; 5×10^5 CFU/mL", "value": 4, "unit": "µg/mL"},
      {"measurement": "MIC Coagulase Negative Staphylococcus (GC 6257)", "setting": "Staphylococcus sp.; 5×10^5 CFU/mL", "value": 2, "unit": "µg/mL"},
      {"measurement": "MIC Staphylococcus aureus (ATCC 29213)", "setting": "Staphylococcus sp.; 5×10^5 CFU/mL", "value": 16, "unit": "µg/mL"},
      {"measurement": "MIC Staphylococcus aureus (GC 1131)", "setting": "Staphylococcus sp.; 5×10^5 CFU/mL", "value": 4, "unit": "µg/mL"},
      {"measurement": "MIC Staphylococcus aureus (GC 3051)", "setting": "Staphylococcus sp.; 5×10^5 CFU/mL", "value": 8, "unit": "µg/mL"},
      {"measurement": "MIC Staphylococcus aureus (GC 3053)", "setting": "Staphylococcus sp.; 5×10^5 CFU/mL", "value": 4, "unit": "µg/mL"},
      {"measurement": "MIC Staphylococcus aureus (GC 4541)", "setting": "Staphylococcus sp.; 5×10^5 CFU/mL", "value": 8, "unit": "µg/mL"},
      {"measurement": "MIC Staphylococcus aureus (GC 4542)", "setting": "Staphylococcus sp.; 5×10^5 CFU/mL", "value": 8, "unit": "µg/mL"},
      {"measurement": "MIC Staphylococcus aureus (GC 4544)", "setting": "Staphylococcus sp.; 5×10^5 CFU/mL", "value": 8, "unit": "µg/mL"},
      {"measurement": "MIC Staphylococcus aureus (GC 4545)", "setting": "Staphylococcus sp.; 5×10^5 CFU/mL", "value": 4, "unit": "µg/mL"},
      {"measurement": "MIC Staphylococcus aureus-SMITH (GC 4543)", "setting": "Staphylococcus sp.; 5×10^5 CFU/mL", "value": 4, "unit": "µg/mL"},
      {"measurement": "MIC Staphylococcus haemolyticus (GC 4546)", "setting": "Staphylococcus sp.; 5×10^5 CFU/mL", "value": 8, "unit": "µg/mL"},
      {"measurement": "MIC Staphylococcus aureus (ATCC 29213)", "setting": "Staphylococcus sp.; strain ATCC 29213", "value": 16, "unit": "µg/mL"},
      {"measurement": "MIC Staphylococcus aureus (GC 1131)", "setting": "Staphylococcus sp.; strain GC 1131", "value": 4, "unit": "µg/mL"},
      {"measurement": "MIC Staphylococcus aureus (GC 3051)", "setting": "Staphylococcus sp.; strain GC 3051", "value": 8, "unit": "µg/mL"},
      {"measurement": "MIC Staphylococcus aureus (GC 3053)", "setting": "Staphylococcus sp.; strain GC 3053", "value": 4, "unit": "µg/mL"},
      {"measurement": "MIC Staphylococcus aureus (GC 4541)", "setting": "Staphylococcus sp.; strain GC 4541", "value": 8, "unit": "µg/mL"},
      {"measurement": "MIC Staphylococcus aureus (GC 4542)", "setting": "Staphylococcus sp.; strain GC 4542", "value": 8, "unit": "µg/mL"},
      {"measurement": "MIC Staphylococcus aureus (GC 4544)", "setting": "Staphylococcus sp.; strain GC 4544", "value": 8, "unit": "µg/mL"},
      {"measurement": "MIC Staphylococcus aureus (GC 4545)", "setting": "Staphylococcus sp.; strain GC 4545", "value": 4, "unit": "µg/mL"},
      {"measurement": "MIC Streptococcus agalactiae (GC 4564)", "setting": "Streptococcus sp.; [1]", "value": "<0.06", "unit": "µg/mL"},
      {"measurement": "MIC Streptococcus pneumoniae (ATCC 6301)", "setting": "Streptococcus sp.; [1]", "value": "<0.06", "unit": "µg/mL"},
      {"measurement": "MIC Streptococcus pneumoniae (GC 1894)", "setting": "Streptococcus sp.; [1]", "value": "<0.06", "unit": "µg/mL"},
      {"measurement": "MIC Streptococcus pneumoniae (GC 4565)", "setting": "Streptococcus sp.; [1]", "value": "<0.06", "unit": "µg/mL"},
      {"measurement": "MIC Streptococcus pyogenes (GC 4563)", "setting": "Streptococcus sp.; [1]", "value": 0.12, "unit": "µg/mL"},
      {"measurement": "MIC Streptococcus pneumoniae (ATCC 6301)", "setting": "Streptococcus sp.; strain ATCC 6301", "value": "<0.06", "unit": "µg/mL"},
      {"measurement": "MIC Streptococcus pneumoniae (GC 1894)", "setting": "Streptococcus sp.; strain GC 1894", "value": "<0.06", "unit": "µg/mL"},
      {"measurement": "MIC Streptococcus pyogenes (GC 4563)", "setting": "Streptococcus sp.; strain GC 4563", "value": 0.12, "unit": "µg/mL"},
      {"measurement": "MIC Streptococcus agalactiae (GC 4564)", "setting": "Streptococcus sp.; strain GC 4564", "value": "<0.06", "unit": "µg/mL"},
      {"measurement": "MIC Streptococcus pneumoniae (GC 4565)", "setting": "Streptococcus sp.; strain GC 4565", "value": "<0.06", "unit": "µg/mL"}
    ]}
  ]
}
